# ChEMBL document CHEMBL5247641, “Discovery of Potent DYRK2 Inhibitors with High Selectivity, Great Solubility, and Excellent Safety Properties for the Treatment of Prostate Cancer” (J Med Chem, 2023)
# pIC50: −log10 of the molar value. Active and inactive are the calls of the source. No cut-off for these calls is given here.
# Experiments:
# [1] = tested on: CWR22R; test: Induction of cell cycle arrest in human 22Rv1 cells assessed as accumulation of cells at S phase at 2 uM incubated for 24 hrs by propidium iodide based flow cytometric analysis (Rvb=20.51 %); type: functional
# [2] = tested on: DU-145; test: Induction of cell cycle arrest in human DU-145 cells assessed as accumulation of cells at G2 phase at 1 uM incubated for 24 hrs by propidium iodide based flow cytometric analysis (Rvb= 17.52%); type: functional
# [3] = tested on: CWR22R; test: Induction of cell cycle arrest in human 22Rv1 cells assessed as accumulation of cells at G2 phase at 1 uM incubated for 24 hrs by propidium iodide based flow cytometric analysis (Rvb=24.21 %); type: functional
# [4] = tested on: CWR22R; test: Antiproliferative activity against human 22Rv1 cells assessed as inhibition of clone formation at 1 to 8 uM incubated for 2 weeks by crystal violet staining based assay; type: functional, cell-based; conditions: dose 1-8 µM
# [5] = tested on: DU-145; test: Antitumor activity against human DU-145 xenografted in BALB/c nude mouse as upregulation of p27 level in tumor at 100 to 200 mg/kg,po administrated once daily for 21 days by Western blot analysis; type: functional, organism-based; conditions: dose 100-200 mg/kg, time 21.0 day
# [6] = tested on: DU-145; test: Antimigratory activity against human DU-145 cells assessed as upregulation of E-cadherin expression level at 2 to 8 uM incubated for 24 hrs by Western blot analysis; type: functional, cell-based; conditions: dose 2-8 µM
# [7] = tested on: DU-145; test: Antitumor activity against human DU-145 xenografted in BALB/c nude mouse as downregulation of c-MYC level in tumor at 100 to 200 mg/kg,po administrated once daily for 21 days by Western blot analysis; type: functional, organism-based; conditions: dose 100-200 mg/kg, time 21.0 day
# [8] = Metabolic stability in human liver microsomes assessed as intrinsic clearance in presence of NADPH incubated up to 60 mins by LC-MS/MS analysis; type: ADME, Microsome; conditions: read-out: CLH
# [9] = tested on: CWR22R; test: Antiproliferative activity against human 22Rv1 cells assessed as cell growth inhibition at 2 to 8 uM incubated for 5 days by microplate reader analysis; type: functional, cell-based; conditions: dose 2-8 µM, time 5.0 day
# [10] = tested on: CWR22R; test: Induction of apoptosis in human 22Rv1 cells assessed as apoptotis rate at 2 uM incubated for 24 hrs by Annexin V-FITC and PI staining based flow cytometry (Rvb= 3.08%); type: functional
# [11] = tested on: CWR22R; test: Induction of cell cycle arrest in human 22Rv1 cells assessed as accumulation of cells at G1 phase at 2 uM incubated for 24 hrs by propidium iodide based flow cytometric analysis (Rvb= 55.28%); type: functional
# [12] = Acute toxicity in ICR mouse assessed as change in spleen weight at 1000 to 10000 mg/kg,po and measured after 14 days; type: organism-based; conditions: in vivo, 336 h, dose 1000-10000 mg/kg, time 14 day
# [13] = tested on: DU-145; test: Induction of cell cycle arrest in human DU-145 cells assessed as accumulation of cells at G1 phase at 4 uM incubated for 24 hrs by propidium iodide based flow cytometric analysis (Rvb= 53.46%); type: functional
# [14] = tested on: DU-145; test: Induction of cell cycle arrest in human DU-145 cells assessed as accumulation of cells at G2 phase at 2 uM incubated for 24 hrs by propidium iodide based flow cytometric analysis (Rvb= 17.52%); type: functional
# [15] = Acute toxicity in ICR mouse assessed as appearance of lesions in heart at 5000 to 10000 mg/kg,po and measured after 14 days by H and E staining based microscopic analysis; type: organism-based; conditions: in vivo, 336 h, dose 5000-10000 mg/kg, time 14 day
# [16] = Acute toxicity in ICR mouse assessed as abnormal body weight change at 1000 to 10000 mg/kg,po and measured upto 14 days; type: organism-based; conditions: in vivo, 336 h, dose 1000-10000 mg/kg, time < 14 day
# [17] = tested on: CWR22R; test: Induction of apoptosis in human 22Rv1 cells assessed as apoptotis rate at 4 uM incubated for 24 hrs by Annexin V-FITC and PI staining based flow cytometry (Rvb= 3.08%); type: functional
# [18] = tested on: DU-145; test: Induction of apoptosis in human DU-145 cells assessed as increase in cleaved PARP level at 2 to 8 uM incubated for 24 hrs by Western blot analysis; type: functional, cell-based; conditions: dose 2-8 µM
# [19] = tested on: DU-145; test: Induction of cell cycle arrest in human DU-145 cells assessed as accumulation of cells at G2 phase at 4 uM incubated for 24 hrs by propidium iodide based flow cytometric analysis (Rvb= 17.52%); type: functional
# [20] = tested on: DU-145; test: Induction of apoptosis in human DU-145 cells assessed as apoptotis rate at 8 uM incubated for 24 hrs by Annexin V-FITC and PI staining based flow cytometry (Rvb= 4.36%); type: functional
# [21] = Acute toxicity in ICR mouse assessed as appearance of lesions in spleen at 5000 to 10000 mg/kg,po and measured after 14 days by H and E staining based microscopic analysis; type: organism-based; conditions: in vivo, 336 h, dose 5000-10000 mg/kg, time 14 day
# [22] = Acute toxicity in ICR mouse assessed as change in heart weight at 1000 to 10000 mg/kg,po and measured after 14 days; type: organism-based; conditions: in vivo, 336 h, dose 1000-10000 mg/kg, time 14 day
# [23] = tested on: DU-145; test: Induction of apoptosis in human DU-145 cells assessed as apoptotis rate at 2 uM incubated for 24 hrs by Annexin V-FITC and PI staining based flow cytometry (Rvb= 4.36%); type: functional
# [24] = Acute toxicity in ICR mouse assessed as appearance of lesions in lung at 5000 to 10000 mg/kg,po and measured after 14 days by H and E staining based microscopic analysis; type: organism-based; conditions: in vivo, 336 h, dose 5000-10000 mg/kg, time 14 day
# [25] = tested on: DU-145; test: Induction of cell cycle arrest in human DU-145 cells assessed as accumulation of cells at S phase at 2 uM incubated for 24 hrs by propidium iodide based flow cytometric analysis (Rvb= 29.02%); type: functional
# [26] = tested on: DU-145; test: Induction of cell cycle arrest in human DU-145 cells assessed as accumulation of cells at S phase at 4 uM incubated for 24 hrs by propidium iodide based flow cytometric analysis (Rvb= 29.02%); type: functional
# [27] = tested on: CWR22R; test: Antimigratory activity against human 22Rv1 cells assessed as upregulation of E-cadherin expression level at 2 to 8 uM incubated for 24 hrs by Western blot analysis; type: functional, cell-based; conditions: dose 2-8 µM
# [28] = tested on: DU-145; test: Antiproliferative activity against human DU-145 cells assessed as inhibition of cell proliferation incubated for 3 days by CCK-8 assay; type: functional, cell-based; conditions: DU-145, 72 h
# [29] = tested on: DU-145; test: Antitumor activity against human DU-145 xenografted in BALB/c nude mouse as inhibition of tumor cell proliferation at 100 to 200 mg/kg,po administrated once daily for 21 days by Ki67 staining based microscopic analysis; type: functional, organism-based; conditions: dose 100-200 mg/kg, time 21.0 day
# [30] = tested on: CWR22R; test: Antiproliferative activity against human 22Rv1 cells assessed as increase in p27 expression level at 2 to 8 uM incubated for 24 hrs by Western blot analysis; type: functional, cell-based; conditions: dose 2-8 µM
# [31] = tested on: DU-145; test: Antitumor activity against human DU-145 xenografted in BALB/c nude mouse as downregulation of p-4E-BP1 level in tumor at 100 to 200 mg/kg,po administrated once daily for 21 days by Western blot analysis; type: functional, organism-based; conditions: dose 100-200 mg/kg, time 21.0 day
# [32] = Acute toxicity in ICR mouse assessed as change in lung weight at 1000 to 10000 mg/kg,po and measured after 14 days; type: organism-based; conditions: in vivo, 336 h, dose 1000-10000 mg/kg, time 14 day
# [33] = Cytotoxicity against human RWPE-1 cells assessed as inhibition of cell proliferation incubated for 3 days by CCK-8 assay; type: toxicity, cell-based
structure (smiles),measurement,setting,value
Cl.O=C(c1ccc(Nc2ncc(F)c(-c3ccc4scnc4c3)n2)nc1)N1CCNCC1,Activity,[1],14.24%
same,Activity,[2],17.18%
same,Activity,[3],23.01%
same,Activity,[4],Active
same,Activity,[5],Active
same,Activity,[6],Active
same,Activity,[7],Active
same,CLint scaled,[8],16 mL/min/kg
same,Activity,[9],Active
same,Activity,[10],11.25%
same,Activity,[11],62.88%
same,Activity,[12],Non-Toxic
same,Activity,[13],68.51%
same,Activity,[14],12.78%
same,Activity,[15],Non-Toxic
same,Activity,[16],Non-Toxic
same,Activity,[17],21.78%
same,Activity,[18],Active
same,Activity,[19],12.12%
same,Activity,[20],11.98%
same,Activity,[21],Non-Toxic
same,Activity,[22],Non-Toxic
same,Activity,[23],6.73%
same,Activity,[24],Non-Toxic
same,Activity,[25],26.15%
same,Activity,[26],19.37%
same,Activity,[27],Active
same,pIC50,[28],5.90
same,Activity,[29],Active
same,Activity,[30],Active
same,Activity,[31],Active
same,Activity,[32],Non-Toxic
same,IC50 at 3 days,[33],25 µM
